# Tests used:
# [1] = molecular target: TrkA (histidine-tagged recombinant human TrkA, cytoplasmic domain) (Homo sapiens (Human), UniProt P04629); test: TrkA ELISA assay; format: biochemical; settings: Table 1, 500 μM ATP, read-out: TrkA Enzyme IC50
# Experimental: An enzyme-linked immunosorbant assay (ELISA) was used to assess TrkA kinase activity in the presence of inhibitors. Immulon 4HBX 384-well microtiter plates (Thermo part #8755) were coated with a 0.025 mg/mL solution of poly (Glu, Ala, Tyr; 6:3:1; Sigma P3899). […] The assay buffer consisted of 25 mM MOPS pH 7.5, 0.005% (v/v) Triton X-100 and 5 mM MgCl2. The reaction mixture was removed from the plate by washing with PBS containing 0.1% (v/v) Tween 20. The phosphorylated reaction product was detected using 0.2 μg/mL of a phosphotyrosine specific monoclonal antibody (clone PY20) conjugated to horseradish peroxidase in conjunction with the TMB Peroxidase Substrate System (KPL). After the addition of 1M phosphoric acid, the chromogenic substrate color intensity was quantitated via absorbance at 450 nm.
# [2] = molecular target: Jak2 (human Jak2 kinase domain, amino acids 808-1132) (Homo sapiens (Human), UniProt O60674); test: Jak2 inhibition assay (Omnia kinase assay); format: biochemical
# Jak2 (human Jak2 kinase domain, amino acids 808-1132), sequence (O60674 808-1132): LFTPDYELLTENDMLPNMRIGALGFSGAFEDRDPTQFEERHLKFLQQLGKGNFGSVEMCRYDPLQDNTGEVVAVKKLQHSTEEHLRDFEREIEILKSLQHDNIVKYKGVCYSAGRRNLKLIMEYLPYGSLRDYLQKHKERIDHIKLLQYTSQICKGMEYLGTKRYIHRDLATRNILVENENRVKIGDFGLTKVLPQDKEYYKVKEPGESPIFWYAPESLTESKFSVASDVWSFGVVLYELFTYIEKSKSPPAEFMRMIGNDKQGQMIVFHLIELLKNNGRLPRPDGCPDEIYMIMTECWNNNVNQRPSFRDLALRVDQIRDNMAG
# TrkA (histidine-tagged recombinant human TrkA, cytoplasmic domain), sequence (P04629 440-796): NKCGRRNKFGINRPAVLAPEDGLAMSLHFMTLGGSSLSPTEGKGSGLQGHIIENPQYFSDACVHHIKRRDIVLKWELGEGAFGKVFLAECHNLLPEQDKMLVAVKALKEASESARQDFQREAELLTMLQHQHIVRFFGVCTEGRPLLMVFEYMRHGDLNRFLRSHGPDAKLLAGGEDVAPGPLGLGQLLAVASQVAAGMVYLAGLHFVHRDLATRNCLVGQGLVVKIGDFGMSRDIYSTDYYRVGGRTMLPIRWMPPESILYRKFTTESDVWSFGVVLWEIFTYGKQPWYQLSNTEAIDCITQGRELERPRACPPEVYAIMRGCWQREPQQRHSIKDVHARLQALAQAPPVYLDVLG
compound,measurement,setting,value
"CCc1ncc(F)cc1[C@H]1CCCN1c1ccn2ncc(C(=O)N[C@H]3CC[C@H](O)C3)c2n1 [Example 200, 5-((R)-2-(2-ethyl-5-fluoropyridin-3-yl)pyrrolidin-1-yl)-N-((1S,3S)-3-hydroxycyclopentyl)pyrazolo[1,5-a]pyrimidine-3-carboxamide]",IC50,[1],12.7 nM
same,IC50,"[2]; Table 1, 500 μM ATP, >1000 nM when >50% inhibition not observed at 1000 nM, read-out: Jak2 Enzyme IC50",> 1000 nM
same,inhibition at 1 µM,"[2]; read-out: Jak2 Enzyme (% inhibition at 1000 nM), Table 1, 1000 nM test compound",12.5%

# — patent US10251889B2, “Substituted pyrazolo[1,5-a]pyrimidine compounds as Trk kinase inhibitors” (Array BioPharma, Inc., priority 2009, dated 2019)
